# From US10611750B2, “Tetrahydroquinoline compositions as bet bromodomain inhibitors” (FORMA Therapeutics, Inc., priority 2013, dated 2020)
# Columns and labels:
# [1] = target: T1, BRD4 Bromodomain 2 (BRD4 BD2) (Homo sapiens, UniProt O60885); experiment: AlphaScreen binding assay, BRD4 BD2; details: His-tagged BRD4 BD2 100 nM, biotinylated H4 (1-21) K5/8/12/16 tetra-acetylated peptide 100 nM, compounds listed under IC50 range headings
# T1 construct: 333-460 were cloned, expressed, and purified to homogeneity
# Outline: (§1)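 Compound dilution series were mixed with His-tagged BRD4 bromodomain and biotinylated tetra-acetylated H4 (1-21) peptide at pH 7.3 (BD1 and peptide at 50 nM, BD2 and peptide at 100 nM). Donor and acceptor beads were then added, and plates were equilibrated at least 1 h before reading. IC50 values were fitted with a four-parameter logistic model.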
# [2] = target: T2, BRD4 Bromodomain 1 (BRD4 BD1) (Homo sapiens, UniProt O60885); experiment: AlphaScreen binding assay, BRD4 BD1; details: His-tagged BRD4 BD1 50 nM, biotinylated H4 (1-21) K5/8/12/16 tetra-acetylated peptide 50 nM, compounds listed under IC50 range headings
# T2 construct: 44-168 and BRD4 BD2
# Outline: as §1
# [3] = tested on: acute myelocytic leukemia (AML) cell line MV4-11; experiment: Oncology cell growth assay (3-day proliferation, CellTiter-Glo); type: cell-based; details: Homo sapiens, MV4-11, 72 h, MV4-11 cells, 3000 cells/well, compounds listed under IC50 range headings, read-out: MV411 IC50 (gIC50, inhibition of proliferation)
# Outline: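 Luminescence from CellTiter-Glo served as the growth read-out after MV4-11 cells (3000/well) were cultured with compound for 72 hours. Final concentrations spanned 10 to 0.0045 μM in 3-fold steps. gIC50 values were derived by four-parameter logistic fitting relative to DMSO and cell-free controls.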
Structure (SMILES),IC50 [1] [nM],IC50 [2] [nM],IC50 [3] [nM]
"C[C@H]1CCc2c(ccc(-c3cnn(C4CCNCC4)c3)c2Oc2cccc(F)c2C#N)N1C(=O)C1CC1 [I-151, (S)-2-(1-(cyclopropanecarbonyl)-2-methyl-6-(1-(piperidin-4-yl)-1H-pyrazol-4-yl)-1,2,3,4-tetrahydroquinolin-5-yloxy)-6-fluorobenzonitrile]",< 50,100 to 1000,< 500
CC(=O)N1c2ccc(-c3cnn(C4CC4)c3)c(OCc3ccncc3)c2CC[C@@H]1C [I-479],< 50,1000 to 10000,> 1000
"CC(=O)N1c2ccc(-c3cnn(CCO)c3)c(Oc3ncccn3)c2CC[C@@H]1C [I-80, (S)-1-(6-(1-(2-hydroxyethyl)-1H-pyrazol-4-yl)-2-methyl-5-(pyrimidin-2-yloxy)-3,4-dihydroquinolin-1 (2H)-yl)ethanone]",< 50,100 to 1000,< 500
"COC(=O)N1c2ccc(-c3cnn(C4CCNCC4)c3)c(Oc3ccccc3Cl)c2CC[C@@H]1C [I-160, (S)-methyl 5-(2-chlorophenoxy)-2-methyl-6-(1-(piperidin-4-yl)-1H-pyrazol-4-yl)-3,4-dihydroquinoline-1(2H)-carboxylate]",< 50,100 to 1000,< 500
"COC(=O)N1c2ccc(-c3cnn(C4CCNCC4)c3)c(Oc3cccc(F)c3)c2CC[C@@H]1C [I-188, Methyl (S)-5-(3-fluorophenoxy)-2-methyl-6-(1-(piperidin-4-yl)-1H-pyrazol-4-yl)-3,4-dihydroquinoline-1(2H)-carboxylate]",< 50,100 to 1000,< 500
COC(=O)N1c2ccc(-c3cnn(C4CC4)c3)c(Oc3ccccc3)c2CCC1C (stereo not drawn) [I-599],50 to 500,1000 to 10000,< 500
CC(=O)N1c2ccc(-c3cnn(C4CC4)c3)c(OC(C)C)c2CC[C@@H]1C [I-388],50 to 500,100 to 1000,500 to 1000
"COC(=O)N1c2ccc(-c3cnn([C@H]4CCNC[C@@H]4F)c3)c(OC3CCC3)c2CC[C@@H]1C [I-363, methyl (2S)-5-cyclobutoxy-6-{1-[(3S,4S)-3-fluoropiperidin-4-yl]-1H-pyrazol-4-yl}-2-methyl-1,2,3,4-tetrahydroquinoline-1-carboxylate]",< 50,100 to 1000,< 500
"CC(=O)N1c2ccc(-c3cnn(C4CCNCC4)c3)c(Oc3ccc(C#N)cc3)c2CC[C@@H]1C [I-140, (S)-4-(1-acetyl-2-methyl-6-(1-(piperidin-4-yl)-1H-pyrazol-4-yl)-1,2,3,4-tetrahydroquinolin-5-yloxy)benzonitrile]",< 50,100 to 1000,< 500
"CC(=O)N1c2ccc(-c3cnn(C4CCN(C)CC4)c3)c(Oc3ccccc3C#N)c2CC[C@@H]1C [I-246, (S)-2-((1-acetyl-2-methyl-6-(1-(1-methylpiperidin-4-yl)-1H-pyrazol-4-yl)-1,2,3,4-tetrahydroquinolin-5-yl)oxy)benzonitrile]",< 50,100 to 1000,< 500
"CCCOc1c(C2CCN(S(C)(=O)=O)CC2)ccc2c1CC[C@H](C)N2C(C)=O [I-355, (S)-1-(2-methyl-6-(1-(methylsulfonyl)piperidin-4-yl)-5-propoxy-3,4-dihydroquinolin-1 (2H)-yl)ethan-1-one]",≥ 500,≥ 10000,> 1000
"CC(=O)N1c2ccc(-c3cnn(C4CCNCC4)c3)c(Oc3ccc(Cl)cc3)c2CC[C@@H]1C [I-191, (S)-1-(5-(4-chlorophenoxy)-2-methyl-6-(1-(piperidin-4-yl)-1H-pyrazol-4-yl)-3,4-dihydroquinolin-1(2H)-yl)ethanone]",< 50,100 to 1000,< 500
"COC(=O)N1c2ccc(-c3cnn(C4CCNCC4)c3)c(Oc3ccc(C#N)cc3)c2CC[C@@H]1C [I-146, (S)-methyl 5-(4-cyanophenoxy)-2-methyl-6-(1-(piperidin-4-yl)-1H-pyrazol-4-yl)-3,4-dihydroquinoline-1(2H)-carboxylate]",50 to 500,100 to 1000,< 500
"CCCOc1c(-c2cnn(C3CCNCC3)c2)ccc2c1CC[C@H](C)N2C(=O)C1CC1 [I-100, (S)-cyclopropyl(2-methyl-6-(1-(piperidin-4-yl)-1H-pyrazol-4-yl)-5-propoxy-3,4-dihydroquinolin-1(2H)-yl)methanone]",< 50,100 to 1000,< 500
COC(=O)N1c2ccc(-c3cnn(CCS(C)(=O)=O)c3)c(Oc3ncccc3C(F)(F)F)c2CC[C@@H]1C [I-562],50 to 500,1000 to 10000,500 to 1000
"COC(=O)N1c2ccc(-c3cnn(C4CCN(C)CC4)c3)c(OC3CCC3)c2CC[C@@H]1C [I-285, Methyl (S)-5-cyclobutoxy-2-methyl-6-(1-(1-methylpiperidin-4-yl)-1H-pyrazol-4-yl)-3,4-dihydroquinoline-1(2H)-carboxylate]",< 50,100 to 1000,< 500
"CC(=O)N1c2ccc(-c3cnn(C4CC4)c3)c(OC3CC(F)(F)C3)c2CC[C@@H]1C [I-51, (S)-1-(6-(1-cyclopropyl-1H-pyrazol-4-yl)-5-(3,3-difluorocyclobutoxy)-2-methyl-3,4-dihydroquinolin-1(2H)-yl)ethanone]",< 50,100 to 1000,< 500
COC(=O)N1c2ccc(-c3cnn(CC(C)(C)O)c3)c(Oc3ccc(C(F)(F)F)cn3)c2CC[C@@H]1C [I-555],50 to 500,1000 to 10000,> 1000
CC(=O)N1c2ccc(-c3cnn(CCS(C)(=O)=O)c3)c(OC3CCC3)c2CC[C@@H]1C [I-409],< 50,100 to 1000,< 500
"COC(=O)N1c2ccc(-c3cnn(C4CNC4)c3)c(Oc3ccccc3C#N)c2CC[C@@H]1C [I-138, (S)-methyl 6-(1-(azetidin-3-yl)-1H-pyrazol-4-yl)-5-(2-cyanophenoxy)-2-methyl-3,4-dihydroquinoline-1(2H)-carboxylate]",< 50,100 to 1000,< 500
"C[C@H]1CCc2c(ccc(-c3cnn(C4CCNCC4)c3)c2OC2CCC2)N1C(=O)C1CC1 [I-99, (2S)-5-cyclobutoxy-1-cyclopropanecarbonyl-2-methyl-6-[1-(piperidin-4-yl)-1H-pyrazol-4-yl]-1,2,3,4-tetrahydroquinoline]",< 50,100 to 1000,< 500
"COC(=O)N1c2ccc(-c3cnn(C4CCNCC4)c3)c(Oc3ccc(F)cc3)c2CC[C@@H]1C [I-158, (S)-methyl 5-(4-fluorophenoxy)-2-methyl-6-(1-(piperidin-4-yl)-1H-pyrazol-4-yl)-3,4-dihydroquinoline-1(2H)-carboxylate]",< 50,100 to 1000,< 500
CC(=O)N1c2ccc(-c3cnn(CCS(C)(=O)=O)c3)c(Oc3ncc(F)cn3)c2CC[C@@H]1C [I-550],< 50,100 to 1000,< 500
CC(=O)N1c2ccc(-c3ccc4c(c3)CCN4S(C)(=O)=O)c(Oc3ncc(F)cn3)c2CC[C@@H]1C [I-548],50 to 500,1000 to 10000,< 500
